From US6673782B2, “Treatment of systemic lupus erythematosis” (Wisconsin Alumni Research Foundation, priority 1999, dated 2004)
“Also recorded” adds a separate entry of the source.

Experiments:
MRL/MPJ-Fas<lpr>mice [1] = test: Mean symptom scores of lupus in MRL/MPJ-Fas mice on 0.02% calcium diet; type: in vivo; details: for Mean symptom scores on 0.02% Ca: 0.02% Ca diet + 100 ng/mouse/day, score 0.5-3
Method: (§1) MRL/MPJ-Fasmice were raised on a chow diet. At 5-6 weeks of age 13 mice were switched to a purified diet containing 0.02% calcium and 14 mice were put on a diet containing 0.02% calcium with 100 ng of 1,25(OH)2D3 per/mouse/day. The mice were checked weekly for physical symptoms of lupus. The symptoms were given numerical scores starting at 0.5=small sore on skin; 1=swollen lymph nodes under front legs; 2=swollen lymph nodes under front legs and neck; 3=swollen lymph nodes under front legs, neck, and back legs (severity scores used in figure on the next page).
(§2) FIG. 3A and B and Tables 3 and 4 disclose data points obtained in this study. At 12 weeks of age the 0.02% Ca+100 ng of 1,25(OH)2D3 group began to show SLE symptoms. It was not until 14 weeks of age that the control (0.02% Ca) mice had the same percentage severity as the mice dosed with 1,25(OH)2D3. Between 18 and 20 weeks of age, about 21.4% of the 0.02% Ca+100 ng 1,25(OH)2D3 mice died. However, none of the controls had reached motality. The experiment was ended at 20 weeks of age.

MRL/MPJ mice [2] = test: SLE disease severity (physical symptom) scores in MRL mice on 0.87% calcium diet; type: in vivo; set-up: key to Mean scores of disease severity: 0.5 = small sores … 3 = swollen nodes front legs, neck and back legs; details: for Mean scores of disease severity: 0.87% Ca, score 0.5-3
Method: MRL mice are the model for the human disease lupus. See Brians, et al., J. Exp. Med. 148:1198-1215, 1978 and P. L. Cohen and R. A. Eisenburg, Annu. Rev. Immunol. 9:243-69, 1991.
(§3) When the MRL mice in this study were 4 weeks old, they were started on one of three experimental diets. All mice were fed the experimental diet which contains 0.87% Ca. Control mice are fed the experimental diet with no 1,25(OH)2D3; one group of 7 mice were fed the experimental diet with 50 ng/mouse/day of 1,25(OH)2D3; and another group of 8 mice were fed the experimental diet with 200 ng/mouse/day of 1,25(OH)2D3. The mice were checked weekly for physical symptoms. In control-fed MRL mice, SLE disease symptoms spontaneously develop after 5 weeks. Symptoms were given numbers from 0.5 to 3, with 0.5 being small sores; 1, swollen lymph nodes under front legs; 2, swollen lymph nodes under front legs and on neck; 3, swollen lymph nodes under front legs, neck and back legs (severity scores for table).
(§4) The diet was then replaced with the same diet providing a dose level of 100 ng/mouse/day.
(§5) The first physical symptoms of lupus began to develop in two female control-fed mice at 14 weeks of age. […] At 17 weeks of age the control mice started to die. Their proteinuria levels were elevated above 300 mg/dl. […] FIG. 1 compares the percentage of mice with elevated proteinuria with the age of the mouse. FIG. 2 compares the severity of the SLE with symptoms the age of the mice.

MRL/MPJ-Fas<lpr>mice [3] = test: Proteinuria in MRL/MPJ-Fas mice on 0.02% calcium diet; type: in vivo; details: 0.02% Ca diet + 100 ng/mouse/day
MRL/I mice = details: Lemire et al., Autoimmunity 1992; cited from earlier work
MRL/MPJ mice [4] = test: Proteinuria in MRL mice on 0.87% calcium diet; type: in vivo; details: for % of Mice with Proteinuria at 100 mg/dL and Greater: 0.87% Ca
Method: as §3
Proteinuria levels were checked weekly started at 16 weeks of age.
as §5

[5] = Serum calcium, hypercalcemia and death in MRL mice on 0.87% calcium diet; type: in vivo; details: for Serum calcium: 0.87% Ca diet (controls 8 mg %Ca)
Method: as §3, §4, §5
Serum calcium values were measured and found to be at 8 mg %Ca for the controls, and 12 mg %Ca for both the 50 ng and 100 ng treated groups. The 1,25(OH)2D3 treatment diet was removed at 17 weeks of age, and all mice were fed the 0.87% calcium control diet for the remainder of the experiment.

MRL/MPJ-Fas<lpr>mice [6] = test: Mortality of MRL/MPJ-Fas mice on 0.02% calcium diet; type: in vivo; details: 0.02% Ca + 100 ng/mouse/day; between 18 and 20 weeks of age (no control deaths)
Method: as §1, §2

C=C1/C(=C\C=C2/CCC[C@]3(C)[C@@H]([C@H](C)CCCC(C)(C)O)CC[C@@H]23)C[C@@H](O)C[C@@H]1O [1,25(OH)2D3, 1α,25-dihydroxyvitamin D3]
Age at which group began to show SLE symptoms (MRL/MPJ-Fas<lpr>mice [1]; 0.02% Ca + 100 ng/mouse/day): 12 weeks of age
Mean symptom scores on 0.02% Ca (MRL/MPJ-Fas<lpr>mice [1]; age 10 weeks): 0
Mean symptom scores on 0.02% Ca (MRL/MPJ-Fas<lpr>mice [1]; age 11 weeks): 0.214 ± 0.410
Mean symptom scores on 0.02% Ca (MRL/MPJ-Fas<lpr>mice [1]; age 12 weeks): 1.642 ± 0.410
Mean symptom scores on 0.02% Ca (MRL/MPJ-Fas<lpr>mice [1]; age 13 weeks): 2.14 ± 0.515
Mean symptom scores on 0.02% Ca (MRL/MPJ-Fas<lpr>mice [1]; age 14 weeks): 2.714 ± 0.45
Mean symptom scores on 0.02% Ca (MRL/MPJ-Fas<lpr>mice [1]; age 15 weeks): 2.785 ± 0.41
Mean symptom scores on 0.02% Ca (MRL/MPJ-Fas<lpr>mice [1]; age 16 weeks): 2.85 ± 0.349
Mean symptom scores on 0.02% Ca (MRL/MPJ-Fas<lpr>mice [1]; age 17 weeks): 2.85 ± 0.349
Mean symptom scores on 0.02% Ca (MRL/MPJ-Fas<lpr>mice [1]; age 18 weeks): 2.80 ± 0.46
Mean symptom scores on 0.02% Ca (MRL/MPJ-Fas<lpr>mice [1]; age 19 weeks): 2.77 ± 0.49
Mean symptom scores on 0.02% Ca (MRL/MPJ-Fas<lpr>mice [1]; age 20 weeks): 2.95 ± 0.33
Disease progression (MRL/MPJ-Fas<lpr>mice [1]; low calcium diet and treatment): disease progression occurring more quickly
Effect on SLE symptoms (MRL/MPJ-Fas<lpr>mice [1]; mice on a 0.02% (low) calcium diet): not effective; also recorded: did not inhibit these symptoms
Mean scores of disease severity (MRL/MPJ mice [2]; 50 ng/mouse/day until 17 weeks, age 18 weeks): 0.21
Mean scores of disease severity (MRL/MPJ mice [2]; 50 ng/mouse/day until 17 weeks, age 19 weeks): 0.12
Mean scores of disease severity (MRL/MPJ mice [2]; 50 ng/mouse/day until 17 weeks, age 20 weeks): 0.33
Mean scores of disease severity (MRL/MPJ mice [2]; 50 ng/mouse/day until 17 weeks, age 21 weeks): 0.11
Mean scores of disease severity (MRL/MPJ mice [2]; 50 ng/mouse/day until 17 weeks, age 22 weeks): 0.11
Mean scores of disease severity (MRL/MPJ mice [2]; 50 ng/mouse/day until 17 weeks, age 23 weeks): 0.11
Mean scores of disease severity (MRL/MPJ mice [2]; 50 ng/mouse/day until 17 weeks, age 24 weeks): 0.11
Mean scores of disease severity (MRL/MPJ mice [2]; 50 ng/mouse/day, age 0-13 weeks): 0.00
Mean scores of disease severity (MRL/MPJ mice [2]; 50 ng/mouse/day, age 14 weeks): 0.00
Mean scores of disease severity (MRL/MPJ mice [2]; 50 ng/mouse/day, age 15 weeks): 0.00
Mean scores of disease severity (MRL/MPJ mice [2]; 50 ng/mouse/day, age 16 weeks): 0.21
Mean scores of disease severity (MRL/MPJ mice [2]; 50 ng/mouse/day, age 17 weeks): 0.21
Mean scores of disease severity (MRL/MPJ mice [2]; 200 ng then 100 ng/mouse/day until 17 weeks, age 18 weeks): 0.07
Mean scores of disease severity (MRL/MPJ mice [2]; 200 ng then 100 ng/mouse/day until 17 weeks, age 19 weeks): 0.08
Mean scores of disease severity (MRL/MPJ mice [2]; 200 ng then 100 ng/mouse/day until 17 weeks, age 20 weeks): 0.00
Mean scores of disease severity (MRL/MPJ mice [2]; 200 ng then 100 ng/mouse/day until 17 weeks, age 21 weeks): 0.00
Mean scores of disease severity (MRL/MPJ mice [2]; 200 ng then 100 ng/mouse/day until 17 weeks, age 22 weeks): 0.00
Mean scores of disease severity (MRL/MPJ mice [2]; 200 ng then 100 ng/mouse/day until 17 weeks, age 23 weeks): 0.00
Mean scores of disease severity (MRL/MPJ mice [2]; 200 ng then 100 ng/mouse/day until 17 weeks, age 24 weeks): 0.00
Mean scores of disease severity (MRL/MPJ mice [2]; 200 ng then 100 ng/mouse/day, age 14 weeks): 0.00
Mean scores of disease severity (MRL/MPJ mice [2]; 200 ng then 100 ng/mouse/day, age 15 weeks): 0.00
Mean scores of disease severity (MRL/MPJ mice [2]; 200 ng then 100 ng/mouse/day, age 16 weeks): 0.00
Mean scores of disease severity (MRL/MPJ mice [2]; 200 ng then 100 ng/mouse/day, age 17 weeks): 0.00
Mean scores of disease severity (MRL/MPJ mice [2]; 200 ng then (from 10 weeks) 100 ng/mouse/day, age 0-13 weeks): 0.00
Effect on SLE symptoms (MRL/MPJ mice [2]; mice on a 0.87% calcium diet): prevented or slowed SLE symptoms
Disease severity scores versus controls (MRL/MPJ mice [2]; treated mice, 0.87% Ca diet): much less for the treated mice than for controls
Physical symptoms of lupus (MRL/MPJ mice [2]; treated mice, 0.87% Ca diet, at 14 weeks of age (two control mice symptomatic)): None of the 1,25(OH)2D3-treated mice showed symptoms
% Proteinurea scores above 100 mg/dl on 0.02% Ca (MRL/MPJ-Fas<lpr>mice [3]; age 10 weeks): 0%
% Proteinurea scores above 100 mg/dl on 0.02% Ca (MRL/MPJ-Fas<lpr>mice [3]; age 11 weeks): 0%
% Proteinurea scores above 100 mg/dl on 0.02% Ca (MRL/MPJ-Fas<lpr>mice [3]; age 12 weeks): 7.14%
% Proteinurea scores above 100 mg/dl on 0.02% Ca (MRL/MPJ-Fas<lpr>mice [3]; age 13 weeks): 14.28%
% Proteinurea scores above 100 mg/dl on 0.02% Ca (MRL/MPJ-Fas<lpr>mice [3]; age 14 weeks): 14.28%
% Proteinurea scores above 100 mg/dl on 0.02% Ca (MRL/MPJ-Fas<lpr>mice [3]; age 15 weeks): 35.7%
% Proteinurea scores above 100 mg/dl on 0.02% Ca (MRL/MPJ-Fas<lpr>mice [3]; age 16 weeks): 28.57%
% Proteinurea scores above 100 mg/dl on 0.02% Ca (MRL/MPJ-Fas<lpr>mice [3]; age 17 weeks): 28.57%
% Proteinurea scores above 100 mg/dl on 0.02% Ca (MRL/MPJ-Fas<lpr>mice [3]; age 18 weeks): 42.85%
% Proteinurea scores above 100 mg/dl on 0.02% Ca (MRL/MPJ-Fas<lpr>mice [3]; age 19 weeks): 28.57%
% Proteinurea scores above 100 mg/dl on 0.02% Ca (MRL/MPJ-Fas<lpr>mice [3]; age 20 weeks): 28.57%
Effect on symptoms of experimental murine lupus (MRL/I mice): attenuation by 1,25-dihydroxyvitamin D3 of some symptoms
% of Mice with Proteinuria at 100 mg/dL and Greater (MRL/MPJ mice [4]; 50 ng/mouse/day in diet, treatment removed at 17 weeks, age 18 weeks): 0%
% of Mice with Proteinuria at 100 mg/dL and Greater (MRL/MPJ mice [4]; 50 ng/mouse/day in diet, treatment removed at 17 weeks, age 19-25 weeks): 0%
% of Mice with Proteinuria at 100 mg/dL and Greater (MRL/MPJ mice [4]; 50 ng/mouse/day in diet, age 0-15 weeks): 0%
% of Mice with Proteinuria at 100 mg/dL and Greater (MRL/MPJ mice [4]; 50 ng/mouse/day in diet, age 16-17 weeks): 0%
% of Mice with Proteinuria at 100 mg/dL and Greater (MRL/MPJ mice [4]; 200 ng then 100 ng/mouse/day in diet, treatment removed at 17 weeks, age 18 weeks): 0%
% of Mice with Proteinuria at 100 mg/dL and Greater (MRL/MPJ mice [4]; 200 ng then 100 ng/mouse/day in diet, treatment removed at 17 weeks, age 19-25 weeks): 0%
% of Mice with Proteinuria at 100 mg/dL and Greater (MRL/MPJ mice [4]; 200 ng then 100 ng/mouse/day in diet, age 16-17 weeks): 0%
% of Mice with Proteinuria at 100 mg/dL and Greater (MRL/MPJ mice [4]; 200 ng then (from 10 weeks) 100 ng/mouse/day in diet, age 0-15 weeks): 0%
Development of proteinuria of 100 mg/dL or greater (MRL/MPJ mice [4]; all treated mice, 0.87% Ca diet, whole experiment): none of the 1,25(OH)2D3 treated mice developed proteinuria of 100 mg/dL or greater
Serum calcium ([5]; 50 ng treated group): 12 mg %Ca
Serum calcium ([5]; 100 ng treated group): 12 mg %Ca
Symptoms of hypercalcemia ([5]; 200 ng/mouse/day, 0.87% Ca diet, at 10 weeks of age): began to show symptoms of hypercalcemia
Death of treated animals ([5]; 0.87% Ca diet, at 17 weeks of age): began to die of what we believe to be hypercalcemia
Mice died (MRL/MPJ-Fas<lpr>mice [6]): about 21.4%
